Data as given in patent US20120276049A1, “Methods and compositions for amelioration of autoimmune disease using fusion proteins of anti-dendritic cell receptor antibody to peptide sequences” (President and Fellows of Harvard College, priority 2009, published 2012).

Assays:
[1] = target: DEC205 receptor (mouse), on splenic CD11c+ dendritic cells of SJL mice (mouse) (UniProt Q60767); test: cell-based or functional assay
[2] = system: patients with secondary progressive MS; settings: weekly s.c. 3 or 10 mg; 50 patients; cited from earlier work
[3] = system: Experimental Autoimmune Encephalomyelitis (EAE, the mouse model of MS); settings: compared with Copaxone; cited from earlier work
[4] = system: PLP139-151-induced EAE in recipient SJL mice; test: Adoptive transfer of CD4+ T cells from preimmunized SJL mice, then EAE induction in recipients; type: in vivo, mouse; settings: donors coimmunized with 500 μg copolymer
Method: SJL mice were preimmunized on day 10 i.p. with each of 1 μg fusion monoclonal antibodies: DEC205-PLP-specific (closed diamonds; αDEC205/PLP mAb CD4^+ T cells) or control GL117-PLP-specific (closed squares; GL117/PLP mAb CD4^+ T cells), or control treatment with 500 μg of the synthetic amino acid copolymer (poly (F,Y,A,K)n; closed light gray circles; PLP139-151+FYAK CD4^+ T cells) or no treatment (closed triangles). The 5×10^6 CD4+ T cells, enriched splenocytes obtained from preimmunized mice, were adoptively transferred i.v. into the tail veins of non-treated mice, followed by immunization on day 1 with 75 μg of PLP139-151 in CFA and PT i.v. the following day. Controls received PBS injections. Mean disease scores of five mice/group are shown. […]
SJL mice herein were preimmunized at day 10 i.p. with 1 μg of DEC205-PLP specific monoclonal antibodies (closed diamonds; αDEC205/PLP mAb) only or not treated (closed triangles) in a control group. Mice were monitored for clinical signs of EAE for 30 days. […]
SJL/J mice were preimmunized (day 10, 15, or 20) with 1 μg i.p. of fusion monoclonal antibodies (DEC205-PLP specific monoclonal antibodies, DEC205-HA specific monoclonal antibodies, DEC205 specific monoclonal antibodies alone, or GL117-PLP specific monoclonal antibodies). […] The mice were scored daily for 30 days. […]

[5] = system: relapsing-remitting forms of MS; settings: cited from earlier work
[6] = in vivo; cited from earlier work

Chain of UniProt Q60767 (Q60767 28-1723): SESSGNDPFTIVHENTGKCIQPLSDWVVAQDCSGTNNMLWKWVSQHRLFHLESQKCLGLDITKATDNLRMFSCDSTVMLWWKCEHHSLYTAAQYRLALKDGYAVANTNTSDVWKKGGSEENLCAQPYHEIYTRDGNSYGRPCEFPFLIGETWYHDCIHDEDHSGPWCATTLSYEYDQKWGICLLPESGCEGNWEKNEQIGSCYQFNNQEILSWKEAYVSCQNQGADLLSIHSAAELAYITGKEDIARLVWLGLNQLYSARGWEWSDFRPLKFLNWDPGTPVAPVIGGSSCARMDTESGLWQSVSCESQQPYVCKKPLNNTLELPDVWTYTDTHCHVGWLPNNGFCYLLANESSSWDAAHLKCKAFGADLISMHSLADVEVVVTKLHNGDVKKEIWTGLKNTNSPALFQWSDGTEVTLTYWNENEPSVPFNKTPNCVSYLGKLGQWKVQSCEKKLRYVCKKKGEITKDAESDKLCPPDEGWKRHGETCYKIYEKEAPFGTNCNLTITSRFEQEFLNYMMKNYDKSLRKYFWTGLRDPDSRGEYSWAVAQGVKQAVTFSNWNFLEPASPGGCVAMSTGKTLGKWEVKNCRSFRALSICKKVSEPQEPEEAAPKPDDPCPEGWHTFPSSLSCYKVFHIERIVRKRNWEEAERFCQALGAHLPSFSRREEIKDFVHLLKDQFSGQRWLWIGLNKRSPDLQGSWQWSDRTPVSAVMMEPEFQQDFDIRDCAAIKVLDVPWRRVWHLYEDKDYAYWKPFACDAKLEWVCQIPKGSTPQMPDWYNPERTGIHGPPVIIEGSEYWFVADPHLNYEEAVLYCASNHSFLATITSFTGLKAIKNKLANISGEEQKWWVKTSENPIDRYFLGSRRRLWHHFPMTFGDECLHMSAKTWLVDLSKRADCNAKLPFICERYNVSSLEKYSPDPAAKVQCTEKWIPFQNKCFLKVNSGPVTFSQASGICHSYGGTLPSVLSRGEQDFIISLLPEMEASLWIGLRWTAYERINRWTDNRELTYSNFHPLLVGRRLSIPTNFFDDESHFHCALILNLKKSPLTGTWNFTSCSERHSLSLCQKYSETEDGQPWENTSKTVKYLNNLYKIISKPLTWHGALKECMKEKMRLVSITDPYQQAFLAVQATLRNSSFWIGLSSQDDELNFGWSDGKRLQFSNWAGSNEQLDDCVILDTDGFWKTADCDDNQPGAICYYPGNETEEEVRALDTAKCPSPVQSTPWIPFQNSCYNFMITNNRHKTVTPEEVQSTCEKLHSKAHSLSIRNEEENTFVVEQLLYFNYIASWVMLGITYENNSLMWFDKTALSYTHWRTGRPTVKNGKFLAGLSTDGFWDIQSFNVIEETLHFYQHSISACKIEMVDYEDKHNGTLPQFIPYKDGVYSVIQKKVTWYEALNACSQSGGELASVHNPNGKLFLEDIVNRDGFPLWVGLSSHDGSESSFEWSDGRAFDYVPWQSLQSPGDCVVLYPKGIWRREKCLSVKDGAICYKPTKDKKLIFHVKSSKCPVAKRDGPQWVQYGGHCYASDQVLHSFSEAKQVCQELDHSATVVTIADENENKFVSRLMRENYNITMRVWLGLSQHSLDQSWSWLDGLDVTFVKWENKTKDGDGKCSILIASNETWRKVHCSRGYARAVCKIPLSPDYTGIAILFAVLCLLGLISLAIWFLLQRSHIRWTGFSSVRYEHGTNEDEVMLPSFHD

Substance: anti-DEC205-PLP139-151 fusion monoclonal antibody (cloned NLDC-145 with PLP139-151 fused to the C terminus of the Ig heavy chain)
- IFN-γ secretion in day 3 coculture supernatants (cytokine bead array) [1]: 10 fold

Substance: poly (F,Y,A,K)n [FYAK]
- number of Gadolinium-enhancing lesions [2]: severely reduce
- effectiveness in treatment of EAE [3]: far more effective than Copaxone
- EAE induction in recipients of CD4+ T cells [4]: efficiently prevented EAE induction

Substance: poly(Y, E, A, K)n [Copaxone ®]
- reduction of relapse rate [5]: 30%
- side effects [6]: severe injection
